US20250345316A1, “METHODS OF INCREASING LYMPHOCYTE TRAFFICKING TO THE COLON BY STIMULATING RETINOIC ACID RECEPTORS AND ARYL HYDROCARBON RECEPTORS” (President and Fellows of Harvard College, priority 2024, published 2025)

Experiments:
[1] = system: α4β7, GPR15 and CCR9 on OT-1 cells; assay: OT-1 in vivo assay: expression of gut homing molecules on OT-1 cells in blood and draining lymph nodes; set-up: species or system mice; conditions: for GPR15 on OT-1 cells (effector CD8+ T cells): day 4 blood, L-KYN 500 nmol in PEG-400; for α4β7 and CCR9 expression: subcutaneous vaccination model, supplementation
Procedure: At timepoints defined by individual experiments, tissues were harvested and analyzed.
(§1) Cell Count and Flow Cytometry and Cell Count: For cell counting, samples were diluted and counted on a BD Accuri C6 Plus cytometer. For flow cytometry, samples were run on a Beckman CytoFLEX cytometer, and analysis was done using Flow Jo software V10.
The experimental approach is shown in the schematic in FIG. 2. […] Tissues were harvest on day 7 and analyzed by flow cytometry.

AHR = assay: CRISPR knockout of AHR in OT-1 cells, co-transfer with control cells; assay type: in vivo, mouse
From the text: CRISPR Knockout of AHR and GPR15: Naïve GFP+OT-1 cells were isolated with mouse CD8a+ T Cell Isolation Kit (Miltenyi) and nucleofected with Cas9 protein, complexed with either control (CD19) gRNA, or GPR15 gRNA. gRNAs were designed using Synthego online tool and synthesized by Synthego. The procedure was done using a Lonza nucleofector, with the P3 Primary cell Kit. Cells were distinguished based on expression of congenic marker CD45.1 and co-transferred into recipient mice. Recipient mice were immunized, and tissues were analyzed at different timepoints.
Loss of AHR abrogated ligand-depended upregulation of GPR15. Naïve GFP+OT-1 cells were nucleofected with Cas9 protein, complexed with either control (CD19) gRNA, or AHR gRNA. Transfected cells were distinguished based on expression of congenic marker CD45.1 and co-transferred into recipient mice. Recipient mice were immunized with OVA+CpG, and injected with DMSO, Am80, 10-CL-BBQ or Am80+10-CL-BBQ (same dose and regimen as previously described). Flow cytometry plots, gated on OT-1 cells. […] Quantification is shown of GPR15+, α4β7+ and CCR9+ cells, percentage out of OT-1 cells in respective groups (FIGS. 21B-21D). […] Control cells used were CD45.1^− and […] cells were CD45.1+.

OT-1 cells = assay: Short-term competitive homing of OT-1 cells; assay type: in vivo, mice; conditions: 5×10^6 cells from each treatment transferred into naïve B6 recipients; without Am80
Procedure: Short-term Competitive Homing: OT-1 cells, either in vitro or in vivo generated, were distinguished by congenic markers CD45.1/CD45.2, mixed at around 1:1 ratio and adoptively transferred into recipient animals. At 20-24 hours post transfer, mice were sacrificed, and tissues were harvested for analysis. Ratio of transferred cells were obtained, and homing index was calculated.
Briefly, two GFP+OT-1 transgenic mice with or without expression of the congenic marker CD45.1 were used per experiment (mouse A and mouse B), and OT-1 cells were isolated from their spleens. OT-1 cells from different mice ([A] and [B]) were subjected to different treatments (A and B, including culture, genetic manipulation, in vivo activation and re-harvesting, etc). The cells were then mixed at an around 1:1 ratio and injected into a B6 recipient (GFP−). At timepoints (determined for each experiment), with or without additional in vivo treatments (determined by each experiment), tissues were analyzed by flow cytometry and the ratio of [A] and [B] in each tissue was obtained. Homing index and normalized homing index (see equation) were calculated.
As a supplementation to in vitro approaches, the gut homing capacity of in vivo generated effector T cells was tested in the disclosed vaccination strategy. […]

[2] = system: OT-1 cells (antigen-specific CD8+ T cells); assay: OT-1 in vivo assay (parenteral immunization): OT-1 cells in tissues by flow cytometry; set-up: species or system mice; conditions: for OT-1 effector cells in the colon and cecum: B6 mice, OVA+CpG s.c. day 0, Am80 500 nmol, 10-CL-BBQ 164 nmol s.c. day 0, 1, 2; for OT-1 effector cells in the colon and cecum / OT-1 cells in the small intestine: day 7; for OT-1 cells in the small intestine: same regimen; for CD8+ T cell trafficking to the small intestine / tissue residence: supplementation
Procedure: OT-1 in vivo Assay (Parenteral Immunization): Mice were adoptively transferred with OT-1 cells, and subsequently immunized with […] chicken ovalbumin (OVA) and an adjuvant CpG-1668 (0.5 nmol). On day 0.1 and 2, mice were injected s.c. with solvent control (DMSO, 10% v/v in PEG-400), retinoic acid receptor agonist Am80 (500 nmol in PEG-400), AHR agonist 10-CL-BBQ (164 nmol in PEG-400), or Am80+10-CL-BBQ (same dose). At timepoints defined by individual experiments, tissues were harvested and analyzed.
Preparing intestinal samples for flow cytometry: Small intestine (duodenum to ileum) was dissected out and flushed. Peyer's patches and fat were removed, and the tissue was cut into 4-5 pieces, and flipped to expose the luminal surface. Colon and cecum were dissected out, flushed and cut open longitudinally.
as §1
The experimental approach is shown in the schematic in FIG. 2. Antigen-specific CD8+ T cells (OT-1 cells, recognizing a peptide within the chicken ovalbumin protein) were adoptively transferred (1×10^5 cells) to B6 recipient mice on day −1, and B6 recipients were vaccinated subcutaneously (s.c.) on day 0 with 100 μg chicken ovalbumin (OVA) and an adjuvant CpG-1668 (0.5 nmol). On day 0.1 and 2, mice were injected subcutaneously with solvent control (DMSO, 10% v/v in PEG-400), retinoic acid receptor agonist Am80 (500 nmol in PEG-400), AHR agonist 10-CL-BBQ (164 nmol in PEG-400), or Am80+10-CL-BBQ (same dose). Tissues were harvest on day 7 and analyzed by flow cytometry.

OT-1 CD8+ T cells = assay: OT-1 in vitro culture to generate GPR15+CD8+ T cells; assay type: cell-based, mouse; conditions: day 4 post activation
Procedure: OT-1 in vitro Culture: OT-1 splenocytes were pulsed for 1 hour with 1 μg OVA peptide (257-264) and cultured overnight in complete T cell (RPMI) media. The next day, CD8+ T cells were isolated using mouse CD8a+ T Cell Isolation Kit (Miltenyi) and cultured with various treatment conditions.
Various treatment conditions were tested for the efficiency of generating GPR15^+CD8^+ T cells. OT-1 splenocytes were pulsed for 1 hour with 1 μg OVA peptide (257-264) and cultured overnight in complete RPMI media. The next day, CD8^+ T cells were isolated using mouse CD8a^+ T Cell Isolation Kit (Miltenyi) and cultured with various treatment conditions. […] 4 days post activation. Plots were pre-gated on CD8a^+ cells. […] GPR15^+ T cells peaked around 4-5 days post activation. Cells were treated with IL-2+10-CL-BBQ+TGF-β1.

[3] = system: OT-1 cells (antigen-specific CD8+ T cells); assay: OT-1 in vivo assay (parenteral immunization): OT-1 cells in tissues by flow cytometry; set-up: species or system mice
[4] = 10 nM ATRA added concurrently with IL-2+TGF-β1+10-CL-BBQ

With `O=c1c2cccc3cccc(c32)c2nc3ccc(Cl)cc3n12` [10-CL-BBQ, 10-Chloro-7H-benzimidazo[2,1-a]benzl[de]isoquinolin-7-one] the “GPR15 expression on OT-1 cells in the blood” value ([1]; blood, day 4-6) was “most robust”, the “GPR15 expression on CD8a+ cells of the recipient (mostly naïve)” value ([1]; blood, day 5) was “did not affect” and the “GPR15 on adoptively transferred OT-1 cells (effector phase)” value ([1]; blood, day 5) was “up-regulated”. For the same compound, the “GPR15 on OT-1 cells (effector CD8+ T cells)” value [1] was “significantly up-regulated”, the “GPR15 on OT-1 cells nucleofected with AHR gRNA” value (AHR; day 5 blood, compared to control gRNA cells) was “not 10-CL-BBQ dependent upregulation” and the “representation of AHR KO cells in the colon and cecum (ratio [Ctrl] to [AHR knockout], normalized to spleen)” value (AHR; day 7 post immunization) was “under-represented”. The “trafficking of in vitro cultured cells to small and large intestine” value (OT-1 cells) was “did not constitute trafficking”, the “OT-1 effector cells in the colon and cecum” value [2] was “some increase” and the “OT-1 cells in the small intestine” value [2] was “no effect”.

In the case of `CC1=C(/C=C/C(C)=C/C=C/C(C)=C/C(=O)O)C(C)(C)CCC1` [ATRA, 3,7-Dimethyl-9-(2,6,6-trimethyl-1-cyclohexen-1-yl)-2E,4E,6E,8E,-nonatetraenoic acid], the “α4β7 and CCR9 expression” value [1] was “increased”, the “α4β7^high GPR15+ population” value (OT-1 CD8+ T cells; 10 nM ATRA added 24-48 hours after IL-2+TGF-β1+10-CL-BBQ) was “enabled the generation of an α4β7^high GPR15+ population” and the GPR15 expression (OT-1 CD8+ T cells; [4]) was “completely abrogated”. For the same compound, the “trafficking phenotype (α4β7, CCR9)” value (OT-1 CD8+ T cells; [4]) was “skewed cells towards a small intestine trafficking phenotype”, the “CD8+ T cell trafficking to the small intestine” value ([2]; subcutaneous vaccination model) was “increased” and the tissue residence ([2]; subcutaneous vaccination model) was “promoted”.

For `CC1(C)CCC(C)(C)c2cc(NC(=O)c3ccc(C(=O)O)cc3)ccc21` [Am80, 4-[[(5,6,7,8-Tetrahydro-5,5,8,8-tetramethyl-2-naphthalenyl)amino]carbonyl]benzoic acid], the “α4β7 and CCR9 expression” value [1] was “increased”, the “OT-1 effector cells in the colon and cecum” value [2] was “some increase” and the “OT-1 cells in the small intestine” value [2] was “increased”. The “optimal trafficking to the large intestine” value ([2]; subcutaneous vaccination model) was “not sufficient”, the “CD8+ T cell trafficking to the small intestine” value ([2]; subcutaneous vaccination model) was “increased” and the tissue residence ([2]; subcutaneous vaccination model) was “promoted”.

With `Cc1ccccc1N=Nc1ccc(NC(=O)c2ccnn2C)c(C)c1` [CH-223191] the “effects of 10-CL-BBQ on colon trafficking” value ([3]; 250 nmol in PEG-400, given with 10-CL-BBQ) was “antagonized”.

`Nc1ccccc1C(=O)C[C@H](N)C(=O)O` [L-KYN, L-kynurenine] was tested, and the “GPR15 on OT-1 cells (effector CD8+ T cells)” value [1] was “did not increase”, the “colon trafficking (OT-1 cells out of total CD8+ T cells)” value ([2]; alone) was “did not increase” and the “colon trafficking (OT-1 cells out of total CD8+ T cells)” value ([2]; in combination with Am80) was “did not increase”.

For `FC(F)(F)c1ccc(Nc2nccc(-c3cccc(Cl)c3)n2)cc1` [VAF347], the “colon trafficking (OT-1 cells out of total CD8+ T cells)” value ([3]; 250 nmol in PEG-400) was “increased colon trafficking but at a lower efficacy than 10-CL-BBQ”.
